Laboratory results: patent US10556878B2, “Thiourea compounds and their use as inhibitors of Sirt2 or Sirt5” (CORNELL UNIVERSITY, priority 2013, dated 2020)
Values belong to the molecule of their own block, whether it stands above or below them.

Assays:
[1] = biological target: T1, Sirt5 (Homo sapiens, UniProt Q9NXA8); assay: sirtuin inhibition IC50, Sirt5-catalyzed desuccinylation; format: biochemical
T1 sequence (Q9NXA8 37-310): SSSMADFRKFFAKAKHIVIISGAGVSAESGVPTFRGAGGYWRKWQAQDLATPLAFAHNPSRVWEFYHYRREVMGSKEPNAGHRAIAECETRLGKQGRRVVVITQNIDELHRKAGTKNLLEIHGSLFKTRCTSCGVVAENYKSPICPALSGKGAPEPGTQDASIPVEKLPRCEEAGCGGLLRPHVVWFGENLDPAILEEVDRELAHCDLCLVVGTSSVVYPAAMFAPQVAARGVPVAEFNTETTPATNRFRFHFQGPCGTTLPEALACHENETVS

[2] = biological target: T2, Sirt2 (Homo sapiens, UniProt Q8IXJ6); assay: sirtuin inhibition IC50, Sirt2; format: biochemical
T2 sequence (Q8IXJ6 1-389): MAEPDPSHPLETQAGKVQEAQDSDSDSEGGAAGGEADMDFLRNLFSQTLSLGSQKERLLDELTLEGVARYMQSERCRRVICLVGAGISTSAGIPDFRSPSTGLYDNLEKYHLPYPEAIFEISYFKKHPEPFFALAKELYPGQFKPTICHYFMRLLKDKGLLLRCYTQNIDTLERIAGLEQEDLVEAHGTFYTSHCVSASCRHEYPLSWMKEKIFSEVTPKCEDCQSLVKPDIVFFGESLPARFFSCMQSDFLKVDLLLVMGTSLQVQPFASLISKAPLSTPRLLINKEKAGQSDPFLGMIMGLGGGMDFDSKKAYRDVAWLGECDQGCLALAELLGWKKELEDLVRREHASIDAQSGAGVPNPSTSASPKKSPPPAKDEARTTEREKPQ

[3] = biological target: T3, Sirt1 (Homo sapiens, UniProt Q96EB6); assay: sirtuin inhibition IC50, Sirt1; format: biochemical; details: Table 1; NI = no inhibition at 256 μM
T3 sequence (Q96EB6 1-747): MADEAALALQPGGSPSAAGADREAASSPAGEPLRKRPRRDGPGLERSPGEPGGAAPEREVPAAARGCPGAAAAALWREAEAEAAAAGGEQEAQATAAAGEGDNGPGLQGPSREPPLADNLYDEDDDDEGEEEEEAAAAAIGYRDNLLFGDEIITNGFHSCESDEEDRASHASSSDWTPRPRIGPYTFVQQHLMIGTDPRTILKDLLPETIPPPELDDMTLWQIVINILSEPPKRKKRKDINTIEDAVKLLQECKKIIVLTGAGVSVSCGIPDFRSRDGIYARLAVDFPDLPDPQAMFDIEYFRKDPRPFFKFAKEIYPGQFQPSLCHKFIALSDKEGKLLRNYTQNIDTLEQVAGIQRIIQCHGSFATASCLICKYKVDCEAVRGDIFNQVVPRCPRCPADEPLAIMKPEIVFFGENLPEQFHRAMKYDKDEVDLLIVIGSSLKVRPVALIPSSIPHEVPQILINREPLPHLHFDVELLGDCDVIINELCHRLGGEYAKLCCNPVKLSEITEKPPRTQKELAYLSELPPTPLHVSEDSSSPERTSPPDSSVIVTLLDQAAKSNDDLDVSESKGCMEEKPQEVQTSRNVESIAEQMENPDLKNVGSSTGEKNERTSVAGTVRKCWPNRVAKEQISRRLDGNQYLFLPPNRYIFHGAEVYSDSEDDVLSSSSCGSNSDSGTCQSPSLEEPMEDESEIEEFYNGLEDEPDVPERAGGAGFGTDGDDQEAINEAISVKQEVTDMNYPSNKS

[4] = biological target: T4, Sirt3 (Homo sapiens, UniProt Q9NTG7); assay: sirtuin inhibition IC50, Sirt3; format: biochemical; details: Table 1; NI = no inhibition at 256 μM
T4 sequence (Q9NTG7 1-399): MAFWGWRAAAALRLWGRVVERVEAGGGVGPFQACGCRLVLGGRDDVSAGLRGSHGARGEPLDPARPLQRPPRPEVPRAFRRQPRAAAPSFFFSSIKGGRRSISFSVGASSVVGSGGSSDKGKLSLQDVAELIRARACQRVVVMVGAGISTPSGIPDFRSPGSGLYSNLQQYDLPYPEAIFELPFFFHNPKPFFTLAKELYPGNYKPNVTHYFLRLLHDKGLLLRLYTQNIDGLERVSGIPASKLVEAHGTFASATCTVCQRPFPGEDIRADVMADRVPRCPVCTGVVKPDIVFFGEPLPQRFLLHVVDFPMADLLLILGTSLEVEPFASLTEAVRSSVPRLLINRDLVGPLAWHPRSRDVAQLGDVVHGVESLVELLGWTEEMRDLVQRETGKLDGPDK

[5] = biological target: T1, Sirt5; assay: LC-MS analysis of reaction mixture with Sirt5 and NAD (mechanism-based inhibition); format: biochemical; details: LC / MS detection
Description: To further confirm that the thiourea compound 5 is a mechanism-based inhibitor, the reaction mixture was analyzed by liquid chromatography-mass spectrometry (LC-MS). An ion with m/z of 1028.17 (corresponding to Compound 7a or protonated Compound 7b or 7c) was detected only when Compound 5 was incubated with both Sirt5 and NAD for 15 minutes, but not in negative controls without Sirt5 or NAD. In addition to Compound 7a or protonated Compound 7b or 7c, two new ions with m/z of 356.33 (corresponding to Compound 1) and 471.42 (corresponding to Compound 10) were also observed when Compound 5 was incubated with both Sirt5 and NAD, but not in negative controls without Sirt5 or NAD. Both Compounds 1 and 10 can be derived from the regular Sirt5-catalyzed deacylation reaction of Compound 7a (herein denoted as pathway A, as discussed in A. A. Sauve, et al., Annu. Rev. Biochem., 75, 435-465, 2006) or by an alternative hydrolysis pathway of 7a that is different from the regular sirtuin-catalyzed deacylation pathway (herein denoted as pathway B). […]
The foregoing results are likely responsible for Compound 3b being a less capable inhibitor of Sirt5 compared to Compound 5. […] The decomposition of the covalent intermediate occurs mainly through the Sirt5-catalyzed deacylation pathway A as the major product detected is Compound 1 with an m/z of 356.33.
The intermediate (7a/7b/7c) is readily detected by LC. […]

[6] = system: MCF-7; assay: inhibition of MCF-7 cancer cells, crystal violet staining after 10 days; format: cell-based, human; details: 25, 50, 75, 100 μM
Description: 15,000 cells were seeded in each well and treated with 25, 50, 75, and 100 μM YC6-18 and YC6-18e. Media with the inhibitor/DMSO was changed every three days. Cells were stained with crystal violet after growing for 10 days. The results are shown in FIG. 5A (for YC-6-18) and FIG. 5B (for YC-6-18e).

[7] = system: HeLa cell lines; assay: protein succinylation Western blot in HeLa cells; format: cell-based; details: 100 μM, 24 and 48 hours
Description: FIGS. 3A and 3B show the results of treatment of HeLa cell lines with 100 μM YC6-18e at time points of 24 and 48 hours, and FIG. 3C is the structure of YC6-18e. […] The results reveal that treatment with Compound YC6-18e can increase protein lysine succinylation. It was observed that the loading is lower for 48 hours but the succinylation intensity is slightly higher.

[8] = system: MDA-MB-468; assay: foci formation, MDA-MB-468; format: cell-based, human; details: tested at 10, 25, 50, 100 μM
Description: (§1) Each cancer cell line was assayed under the following six conditions: (1) untreated, (2) DMSO, (3) 15-2e at 10 μM, (4) 15-2e at 25 μM, (5) 15-2e at 50 μM, and (6) 15-2e at 100 μM.

[9] = system: MCF-7 cells; assay: foci formation, MCF-7; format: cell-based, human; details: tested at 10, 25, 50, 100 μM
Description: as §1

[10] = system: MDA-MB-231; assay: foci formation, MDA-MB-231; format: cell-based, human; details: tested at 10, 25, 50, 100 μM
Description: as §1

[11] = Table 1, NI = no inhibition at 256 μM

IC50 ([1]; Table 2, NI = no inhibition): 1.91 µM
SMILES: O=C(O)CCNC(=S)NCCCCC(NC(=O)OCc1ccccc1)C(=O)Nc1ccccc1O (stereo not shown) [YC6-07]

IC50 ([1]; Table 2, NI = no inhibition): 13.6 µM
SMILES: CC(=O)NC(CCCCNC(=S)NCCC(=O)O)C(=O)Nc1cccc(O)c1 (stereo not shown) [YC6-17]

IC50 [1, 11]: > 256 µM
IC50 [2, 11]: 0.2 µM
IC50 [3]: 64 µM
SMILES: CCCCCCCNC(=S)NCCCCC(NC(=O)OCc1ccccc1)C(=O)Nc1ccccc1 (stereo not shown) [Compound 6]

IC50 ([1]; Table 2, NI = no inhibition): 0.89 µM
SMILES: O=C(O)CCNC(=S)NCCCCC(NC(=O)OCc1ccccc1)C(=O)Nc1cccc(O)c1 (stereo not shown) [Compound I5-2]

IC50 ([1]; Table 2, NI = no inhibition): 3.05 µM
SMILES: NS(=O)(=O)c1cc(C(=O)NC(CCCCNC(=S)NCCC(=O)O)C(=O)Nc2cccc(O)c2)ccc1Cl (stereo not shown) [YC6-14]

IC50 ([1]; Table 2, NI = no inhibition): 3.28 µM
SMILES: O=C(O)CCNC(=S)NCCCCC(NC(=O)OCc1ccccc1)C(=O)Nc1ccc(O)cc1 (stereo not shown) [YC6-04]

IC50 ([1]; Table 2, NI = no inhibition): 4.37 µM
SMILES: CC(C)(C)OC(=O)NC(CCCCNC(=S)NCCC(=O)O)C(=O)Nc1cccc(O)c1 (stereo not shown) [YC6-09]

IC50 [1, 11]: 43 µM
IC50 [2, 11]: > 256 µM
IC50 [3]: > 256 µM
IC50 [4]: > 256 µM
covalent intermediate with NAD in the presence of Sirt5 [5]: hardly detectable by LC
SMILES: O=C(O)CCCC(=S)NCCCC[C@H](NC(=O)OCc1ccccc1)C(=O)Nc1ccccc1 [Compound 3b]

IC50 ([1]; Table 2, NI = no inhibition): 0.45 µM
SMILES: O=C(O)CCNC(=S)NCCCCC(NC(=O)OCc1ccccc1)C(=O)NC1CCSc2ccccc21 (stereo not shown) [YC6-18]
killing of MCF-7 cells [6]: almost no effect

SMILES: CCOC(=O)CCNC(=S)NCCCCC(NC(=O)OCc1ccccc1)C(=O)NC1CCSc2ccccc21 (stereo not shown) [YC6-18e]
IC50 ([1]; Table 2, NI = no inhibition): > 167 µM
succinylation level on proteins [7]: increased the succinylation level on proteins at 24 and 48 hours
IC50 ([2]; Table 2, NI = no inhibition): 3.92 µM
killing of MCF-7 cells [6]: very effective in killing MCF-7 at 25 μM concentration

IC50 [1, 11]: > 500 µM
inhibition at 500 µM ([1]; at 500 μM): 20%
IC50 [2, 11]: > 256 µM
IC50 [3]: > 256 µM
IC50 [4]: > 256 µM
SMILES: O=C(O)CCC(=S)NCCCCC(NC(=O)OCc1ccccc1)C(=O)Nc1ccccc1 (stereo not shown) [Compound 3a, reference compound]

SMILES: CCOC(=O)CCNC(=S)NCCCCC(NC(=O)OCc1ccccc1)C(=O)Nc1cccc(O)c1 (stereo not shown) [Compound I5-2e]
IC50 ([1]; Table 2, NI = no inhibition): > 200 µM
inhibition at 200 µM ([1]; Table 2, at 200 μM (footnote 3), read-out: inhibition of SIRT5 (in brackets under IC50)): 30%
concentration from which foci formation is inhibited [8]: about 25 μM
concentration from which foci formation is inhibited [9]: about 25 μM
concentration from which foci formation is inhibited [10]: about 25 μM
IC50 ([2]; Table 2, NI = no inhibition): 7.05 µM
